We go through four cell lines from the supplement of paper PMC10307832.

What all share (test): relative viability (nuclei count vs DMSO), 5 days (fraction); higher = more cells survive
Compound in the assay “Sorafenib + Alpelisib”: CNC(=O)c1cc(Oc2ccc(NC(=O)Nc3ccc(Cl)c(C(F)(F)F)c3)cc2)ccn1 [Sorafenib] + Cc1nc(NC(=O)N2CCC[C@H]2C(N)=O)sc1-c1ccnc(C(C)(C)C(F)(F)F)c1 [Alpelisib] (partner 2 µM)
Put shortly: (§1)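 Lung cancer cell lines in 1536-well plates were dosed by pin tool the day after seeding, either with one drug alone or with a fixed anchor-drug dose plus five library-drug doses (not always all listed) in √10 steps. After 5 days, cells were fixed and their nuclei stained in one step (final 0.05% Triton X-100, 1% formaldehyde, 1 ug/ml Hoechst), then counted on 4× images. Relative viability is the nuclei count in treated wells divided by that in vehicle wells. Values are medians of duplicate plates.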

Compound in the assay “Sorafenib + Lapatinib”: CNC(=O)c1cc(Oc2ccc(NC(=O)Nc3ccc(Cl)c(C(F)(F)F)c3)cc2)ccn1 [Sorafenib] + CS(=O)(=O)CCNCc1ccc(-c2ccc3ncnc(Nc4ccc(OCc5cccc(F)c5)c(Cl)c4)c3c2)o1 [Lapatinib] (partner 2 µM)
Put shortly:
as §1

Compound in the assay “Sorafenib + Bortezomib”: CNC(=O)c1cc(Oc2ccc(NC(=O)Nc3ccc(Cl)c(C(F)(F)F)c3)cc2)ccn1 [Sorafenib] + CC(C)C[C@H](NC(=O)[C@H](Cc1ccccc1)NC(=O)c1cnccn1)B(O)O [Bortezomib] (partner 0.002 µM)
Put shortly:
as §1

Compound in the assay “Sorafenib + Luminespib”: CNC(=O)c1cc(Oc2ccc(NC(=O)Nc3ccc(Cl)c(C(F)(F)F)c3)cc2)ccn1 [Sorafenib] + CCNC(=O)c1noc(-c2cc(C(C)C)c(O)cc2O)c1-c1ccc(CN2CCOCC2)cc1 [Luminespib] (partner 0.01 µM)
A digest of the protocol:
as §1

Compound in the assay “Sorafenib + OSI-027”: CNC(=O)c1cc(Oc2ccc(NC(=O)Nc3ccc(Cl)c(C(F)(F)F)c3)cc2)ccn1 [Sorafenib] + COc1cccc2cc(-c3nc([C@H]4CC[C@H](C(=O)O)CC4)n4ncnc(N)c34)[nH]c12 [OSI-027] (partner 0.5 µM)
Put shortly:
as §1

For the cell line LOU-NH91, the relative viability in the assay with Sorafenib + Alpelisib (first compound 0.08 µM) was determined as 0.896; with Sorafenib + Alpelisib (first compound 0.253 µM), 0.791; with Sorafenib + Alpelisib (first compound 2.53 µM), 0.885; with Sorafenib + Alpelisib (first compound 8 µM), 0.589; with Sorafenib + Lapatinib (first compound 0.253 µM), 0.71; in the assay with Sorafenib + Lapatinib (first compound 2.53 µM), 0.829. Besides, the relative viability with Sorafenib + Lapatinib (first compound 8 µM) worked out at 0.728; with Sorafenib + Bortezomib (first compound 0.08 µM), 0.548; with Sorafenib + Bortezomib (first compound 0.253 µM), 0.454; in the assay with Sorafenib + Bortezomib (first compound 2.53 µM), 0.552; in the assay with Sorafenib + Bortezomib (first compound 8 µM) it was 0.537; with Sorafenib + Luminespib (first compound 0.08 µM) it was 0.306. In addition, the relative viability with Sorafenib + Luminespib (first compound 0.253 µM) was determined as 0.359; with Sorafenib + Luminespib (first compound 2.53 µM) it was 0.418; in the assay with Sorafenib + Luminespib (first compound 8 µM), 0.336; with Sorafenib + OSI-027 (first compound 0.08 µM) it was 0.783; with Sorafenib + OSI-027 (first compound 0.253 µM), 0.713; with Sorafenib + OSI-027 (first compound 2.53 µM) it was 0.788. Besides, the relative viability in the assay with Sorafenib + OSI-027 (first compound 8 µM) worked out at 0.799.

Regarding H3255, the relative viability came to 0.851 in the assay with Sorafenib + Alpelisib (first compound 0.08 µM); 0.639 with Sorafenib + Alpelisib (first compound 0.253 µM); 0.802 with Sorafenib + Alpelisib (first compound 2.53 µM); 0.552 with Sorafenib + Alpelisib (first compound 8 µM); 0.56 with Sorafenib + Lapatinib (first compound 0.08 µM); 0.222 with Sorafenib + Lapatinib (first compound 0.253 µM). In addition, the relative viability is 0.295 in the assay with Sorafenib + Lapatinib (first compound 2.53 µM); 0.244 with Sorafenib + Lapatinib (first compound 8 µM); 0.841 in the assay with Sorafenib + Bortezomib (first compound 0.08 µM); 0.706 with Sorafenib + Bortezomib (first compound 0.253 µM); 1.05 with Sorafenib + Bortezomib (first compound 2.53 µM); 0.726 with Sorafenib + Bortezomib (first compound 8 µM). The relative viability with Sorafenib + Luminespib (first compound 0.08 µM) turned out to be 1; with Sorafenib + Luminespib (first compound 0.253 µM), 0.781; with Sorafenib + Luminespib (first compound 2.53 µM), 0.925; with Sorafenib + OSI-027 (first compound 0.08 µM), 0.634; in the assay with Sorafenib + OSI-027 (first compound 0.253 µM), 0.566; with Sorafenib + OSI-027 (first compound 2.53 µM), 0.619. For the same cell line, in the assay with Sorafenib + OSI-027 (first compound 8 µM), the relative viability amounted to 0.349.

Consider NCI-H661, for which the relative viability with Sorafenib + Alpelisib (first compound 0.08 µM) turned out to be 0.949; with Sorafenib + Alpelisib (first compound 0.253 µM) it was 0.478; in the assay with Sorafenib + Alpelisib (first compound 2.53 µM) it was 0.596; with Sorafenib + Alpelisib (first compound 8 µM), 0.365; with Sorafenib + Lapatinib (first compound 0.08 µM), 0.595; with Sorafenib + Lapatinib (first compound 0.253 µM), 0.509. Further, the relative viability in the assay with Sorafenib + Lapatinib (first compound 2.53 µM) was 0.446; with Sorafenib + Lapatinib (first compound 8 µM), 0.507; with Sorafenib + Bortezomib (first compound 0.08 µM), 0.96; with Sorafenib + Bortezomib (first compound 0.253 µM) it was 0.871; with Sorafenib + Bortezomib (first compound 2.53 µM) it was 0.648; with Sorafenib + Bortezomib (first compound 8 µM) it was 0.615. For the same cell line, the relative viability came to 0.931 with Sorafenib + Luminespib (first compound 0.08 µM); 0.928 with Sorafenib + Luminespib (first compound 0.253 µM); 0.822 with Sorafenib + Luminespib (first compound 2.53 µM); 0.293 in the assay with Sorafenib + Luminespib (first compound 8 µM); 0.759 in the assay with Sorafenib + OSI-027 (first compound 0.08 µM); 0.73 in the assay with Sorafenib + OSI-027 (first compound 0.253 µM). Also, the relative viability with Sorafenib + OSI-027 (first compound 2.53 µM) was 0.655; in the assay with Sorafenib + OSI-027 (first compound 8 µM) it was 0.483.

On to LU99A, for which the relative viability with Sorafenib + Alpelisib (first compound 0.08 µM) came to 0.58; with Sorafenib + Alpelisib (first compound 0.253 µM), 0.435; with Sorafenib + Alpelisib (first compound 2.53 µM), 0.468; with Sorafenib + Alpelisib (first compound 8 µM), 0.453; in the assay with Sorafenib + Lapatinib (first compound 0.08 µM) it was 1.16; in the assay with Sorafenib + Lapatinib (first compound 0.253 µM), 0.998. Moreover, the relative viability in the assay with Sorafenib + Lapatinib (first compound 2.53 µM) was 0.952; with Sorafenib + Lapatinib (first compound 8 µM), 0.895; with Sorafenib + Bortezomib (first compound 0.08 µM), 1.21; with Sorafenib + Bortezomib (first compound 0.253 µM) it was 1.12; with Sorafenib + Bortezomib (first compound 2.53 µM) it was 1.06; with Sorafenib + Bortezomib (first compound 8 µM), 0.714. In addition, the relative viability in the assay with Sorafenib + Luminespib (first compound 0.08 µM) was 0.359; with Sorafenib + Luminespib (first compound 0.253 µM), 0.25; with Sorafenib + Luminespib (first compound 2.53 µM), 0.204; in the assay with Sorafenib + Luminespib (first compound 8 µM), 0.318; in the assay with Sorafenib + OSI-027 (first compound 0.08 µM) it was 0.299; in the assay with Sorafenib + OSI-027 (first compound 0.253 µM), 0.27. In addition, the values for the relative viability with Sorafenib + OSI-027 (first compound 2.53 µM) and with Sorafenib + OSI-027 (first compound 8 µM) were 0.299 and 0.272, respectively.
